In US8044036B2 (priority 2005, dated 2011):

Experiments:
[1] = system: Septoria tritici; assay: Septoria tritici test (in vitro)/microtitre plates; type: cell-based; settings: application rate 0.3 ppm; 5 days incubation in PDB; 100% = no fungal growth
[2] = system: Pyricularia oryzae; type: cell-based; settings: application rate 3 ppm; 5 days incubation in PDB; 100% = no fungal growth

Compound | Efficacy in % found [1] [%] | Efficacy in % found [2] [%]
OC(Cc1ccccc1Cl)(Cn1nc[nH]c1=S)C1(Cl)CC1 (racemic) [prothioconazole, 2-[(2RS)-2-(1-chlorocyclopropyl)-3-(2-chlorophenyl)-2-hydroxy-propyl]-2H-1,2,4-triazole-3(4H)thione] | 21 | 23
C=CCNC(=O)c1c([Si](C)(C)C)sc(C)c1C [silthiofam, N-alkyl-4,5-dimethyl-2-(trimethylsilyl)thiophene-3-carboxamide] | 10 | 29
